Test results reported in patent US20160296499A1, “Spiroindoline Antiparasitic Derivatives” (ZOETIS SERVICES LLC, priority 2013, published 2016).
pKd, pKi: −log10 of the molar value. Where two headings read alike, the source gives them in different places.

How the values were obtained:
[1] = test system: Dirofilaria immitis microfilariae; test: Dirofilaria immitis, Microfilariae (DiMF) In Vitro Assay; conditions: Dirofilaria immitis
[2] = target: T1, bovine vesicular acetylcholine transporter (VAChT) (Bos taurus, UniProt E1BK36); test: Radioligand Binding Assay; conditions: for pKi: Bovine binding Ki, CHO-K1 membranes with recombinant bovine VAChT, [3H]Compound X6 0.3 nM
T1 sequence (E1BK36 1-524): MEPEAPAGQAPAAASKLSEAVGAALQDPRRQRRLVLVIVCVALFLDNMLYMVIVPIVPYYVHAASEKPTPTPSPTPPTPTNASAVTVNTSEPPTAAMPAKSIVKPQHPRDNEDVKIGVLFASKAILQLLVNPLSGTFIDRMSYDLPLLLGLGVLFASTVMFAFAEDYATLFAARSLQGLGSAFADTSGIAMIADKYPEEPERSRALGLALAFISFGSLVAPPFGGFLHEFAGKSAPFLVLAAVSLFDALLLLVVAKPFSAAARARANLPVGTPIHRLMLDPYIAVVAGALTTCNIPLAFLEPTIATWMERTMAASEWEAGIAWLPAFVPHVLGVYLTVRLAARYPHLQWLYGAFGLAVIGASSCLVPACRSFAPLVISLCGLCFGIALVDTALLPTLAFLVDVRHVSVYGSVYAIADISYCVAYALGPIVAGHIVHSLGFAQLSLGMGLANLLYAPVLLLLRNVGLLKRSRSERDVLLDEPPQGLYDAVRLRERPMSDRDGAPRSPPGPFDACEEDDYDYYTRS

Haemonchus contortus L3 = test: Haemonchus contortus, Larvae Stage 3 (HcL3) In Vitro Assay; conditions: Haemonchus contortus
[3] = 72 h, read-out: Di MF, MEC, decrease in microfilariae motility by visual assessment, curve starting at 100 μM
[4] = 96 h, read-out: HcL3 MEC, Minimal Effective Concentration whereby worm motility is inhibited by approximately 70%, 37° C., tested 0.001-100 μM
[5] = 96 hours, 37° C., read-out: HcL3 MEC

Compound	minimal effective concentration [1, 3]	pKi [2]	minimal effective concentration (Haemonchus contortus L3; [4])	pKd [2]	minimal effective concentration ([1]; 72 hours, read-out: Di MF)	minimal effective concentration (Haemonchus contortus L3; [5])
O=C(NCC1CCCO1)N1CC2(CCN(C/C=C/c3ccc(Cl)c(Cl)c3)CC2)c2c1ccc1scnc21 (racemic) [Example 34, (+/−)(E)-1-(3-(3,4-dichlorophenyl)allyl)-N-((tetrahydrofuran-2-yl)methyl)spiro[piperidine-4,8′-thiazolo[4,5-e]indole]-6′(7′H)-carboxamide]	3.3 µM	6.33	100 µM	–	–	–
O=C(NCC1CCOC1)N1CC2(CCN(C/C=C/c3ccc(Cl)c(Cl)c3)CC2)c2c1ccc1scnc21 (racemic) [Example 35, (+/−)(E)-1-(3-(3,4-dichlorophenyl)allyl)-N-((tetrahydrofuran-3-yl)methyl)spiro[piperidine-4,8′-thiazolo[4,5-e]indole]-6′(7′H)-carboxamide]	3.3 µM	6.14	100 µM	–	–	–
COc1ccc(/C=C/CN2CCC3(CC2)CN(C(=O)NCc2ccnc(Cl)c2)c2ccc(F)cc23)cc1 [Compound X6, reference compound]	–	–	–	9.22	–	–
O=C(NCc1ccnc(Cl)c1)N1CC2(CCN(C/C=C/c3ccc(Cl)c(Cl)c3)CC2)c2cc3c(cc21)COC3 [Example 1, (E)-N-((2-chloropyridin-4-yl)methyl)-1′-(3-(3,4-dichlorophenyl)allyl)-5,7-dihydrospiro[furo[3,4-f]indole-3,4′-piperidine]-1(2H)-carboxamide]	–	7.15	1 µM	–	–	–
O=C(NCc1ccnc(F)c1)N1CC2(CCN(C/C=C/c3ccc(Cl)cc3)CC2)c2cc3c(cc21)COC3 [Example 2, (E)-1′-(3-(4-chlorophenyl)allyl)-N-((2-fluoropyridin-4-yl)methyl)-5,7-dihydrospiro[furo[3,4-f]indole-3,4′-piperidine]-1(2H)-carboxamide]	10 µM	6.49	18.2 µM	–	–	–
O=C(NCc1cnc(Cl)s1)N1CC2(CCN(C/C=C/c3ccc(Cl)cc3)CC2)c2cc3c(cc21)COC3 [Example 3, (E)-1′-(3-(4-chlorophenyl)allyl)-N-((2-chlorothiazol-5-yl)methyl)-5,7-dihydrospiro[furo[3,4-f]indole-3,4′-piperidine]-1(2H)-carboxamide]	–	7.51	–	–	5.7 µM	3.3 µM
O=C(NCc1ccnc(Cl)c1)N1CC2(CCN(C/C=C/c3ccc(F)cc3)CC2)c2cc3c(cc21)COC3 [Example 4, (E)-N-((2-chloropyridin-4-yl)methyl)-1′-(3-(4-fluorophenyl)allyl)-5,7-dihydrospiro[furo[3,4-f]indole-3,4′-piperidine]-1(2H)-carboxamide]	–	7.10	–	–	10 µM	10 µM
N#Cc1ccc(/C=C/CN2CCC3(CC2)CN(C(=O)NCc2ccnc(Cl)c2)c2cc4c(cc23)COC4)cc1 [Example 5, (E)-N-((2-chloropyridin-4-yl)methyl)-1′-(3-(4-cyanophenyl)allyl)-5,7-dihydrospiro[furo[3,4-f]indole-3,4′-piperidine]-1(2H)-carboxamide]	10 µM	7.15	33 µM	–	–	–
O=C(NCc1ccnc(Cl)c1)N1CC2(CCN(C/C=C/c3ccc(Cl)cc3)CC2)c2cc3c(cc21)OCO3 [Example 6, (E)-1-(3-(4-chlorophenyl)allyl)-N-((2-chloropyridin-4-yl)methyl)spiro[piperidine-4,7′-[1,3]dioxolo[4,5-f]indole]-5′(6′H)-carboxamide]	–	7.45	–	–	10 µM	3.3 µM
CC1(C)Oc2cc3c(cc2O1)C1(CCN(C/C=C/c2ccc(Cl)c(Cl)c2)CC1)CN3C(=O)NCc1ccnc(Cl)c1 [Example 7, (E)-N-((2-chloropyridin-4-yl)methyl)-1-(3-(3,4-dichlorophenyl)allyl)-2′,2′-dimethylspiro[piperidine-4,7′-[1,3]dioxolo[4,5-f]indole]-5′(6′H)-carboxamide]	–	6.29	–	–	10 µM	100 µM
CC1(C)Oc2cc3c(cc2O1)C1(CCN(C/C=C/c2ccc(Cl)cc2)CC1)CN3C(=O)NCc1ccnc(Cl)c1 [Example 8, (E)-1-(3-(4-chlorophenyl)allyl)-N-((2-chloropyridin-4-yl)methyl)-2′,2′-dimethylspiro[piperidine-4,7′-[1,3]dioxolo[4,5-f]indole]-5′(6′H)-carboxamide]	–	5.82	–	–	10 µM	100 µM
O=C(NCc1ccnc(Cl)c1)N1CC2(CCN(C/C=C/c3ccc(Cl)c(Cl)c3)CC2)c2cc3c(cc21)OCCO3 [Example 9, (E)-N-((2-chloropyridin-4-yl)methyl)-1-(3-(3,4-dichlorophenyl)allyl)-2′,3′-dihydrospiro[piperidine-4,8′-[1,4]dioxino[2,3-f]indole]-6′(7′H)-carboxamide]	10 µM	7.20	33 µM	–	–	–
O=C(NCc1ccnc(Cl)c1)N1CC2(CCN(C/C=C/c3ccc(Cl)c(Cl)c3)CC2)c2c1ccc1c2OCCO1 [Example 11, (E)-N-((2-chloropyridin-4-yl)methyl)-1-(3-(3,4-dichlorophenyl)allyl)-2′,3′-dihydrospiro[piperidine-4,9′-[1,4]dioxino[2,3-e]indole]-7′(8′H)-carboxamide]	10 µM	6.75	100 µM	–	–	–
O=C(NCc1ccnc(Cl)c1)N1CC2(CCN(C/C=C/c3ccc(Cl)c(Cl)c3)CC2)c2cc3c(cc21)CCC3 [Example 12, (E)-N-((2-chloropyridin-4-yl)methyl)-1′-(3-(3,4-dichlorophenyl)allyl)-2,5,6,7-tetrahydro-1H-spiro[cyclopenta[f]indole-3,4′-piperidine]-1-carboxamide]	–	7.25	–	–	10 µM	2.2 µM
O=C(NCc1ccncc1)N1CC2(CCN(C/C=C/c3ccc(Cl)c(Cl)c3)CC2)c2c1ccc1scnc21 [Example 13, (E)-1-(3-(3,4-dichlorophenyl)allyl)-N-(pyridin-4-ylmethyl)spiro[piperidine-4,8′-thiazolo[4,5-e]indole]-6′(7′H)-carboxamide]	10 µM	6.42	100 µM	–	–	–
O=C(NCc1ncccn1)N1CC2(CCN(C/C=C/c3ccc(Cl)c(Cl)c3)CC2)c2c1ccc1scnc21 [Example 14, (E)-1-(3-(3,4-dichlorophenyl)allyl)-N-(pyrimidin-2-ylmethyl)spiro[piperidine-4,8′-thiazolo[4,5-e]indole]-6′(7′H)-carboxamide]	10 µM	6.14	100 µM	–	–	–
O=C(NCc1ccccc1)N1CC2(CCN(C/C=C/c3ccc(Cl)c(Cl)c3)CC2)c2c1ccc1scnc21 [Example 15, (E)-N-benzyl-1-(3-(3,4-dichlorophenyl)allyl)spiro[piperidine-4,8′-thiazolo[4,5-e]indole]-6′(7′H)-carboxamide]	4.4 µM	6.21	100 µM	–	–	–
O=C(NCc1ccc(F)cc1)N1CC2(CCN(C/C=C/c3ccc(Cl)c(Cl)c3)CC2)c2c1ccc1scnc21 [Example 16, (E)-1-(3-(3,4-dichlorophenyl)allyl)-N-(4-fluorobenzyl)spiro[piperidine-4,8′-thiazolo[4,5-e]indole]-6′(7′H)-carboxamide]	3.3 µM	5.13	100 µM	–	–	–
O=C(NCc1ccc([N+](=O)[O-])cc1)N1CC2(CCN(C/C=C/c3ccc(Cl)c(Cl)c3)CC2)c2c1ccc1scnc21 [Example 17, (E)-1-(3-(3,4-dichlorophenyl)allyl)-N-(4-nitrobenzyl)spiro[piperidine-4,8′-thiazolo[4,5-e]indole]-6′(7′H)-carboxamide]	10 µM	4.94	100 µM	–	–	–
O=C(NCc1ccc(O)cc1)N1CC2(CCN(C/C=C/c3ccc(Cl)c(Cl)c3)CC2)c2c1ccc1scnc21 [Example 18, (E)-1-(3-(3,4-dichlorophenyl)allyl)-N-(4-hydroxybenzyl)spiro[piperidine-4,8′-thiazolo[4,5-e]indole]-6′(7′H)-carboxamide]	43.5 µM	5.65	100 µM	–	–	–
COc1nc2ccccc2cc1CN1CCC2(CC1)CN(C(=O)NCc1ccnc(Cl)c1)c1ccc(Cl)cc12 [Example 134, 5-chloro-N-((2-chloropyridin-4-yl)methyl)-1′-((2-methoxyquinolin-3-yl)methyl)spiro[indoline-3,4′-piperidine]-1-carboxamide]	–	7.46	–	–	–	2 µM
CN(Cc1ccnc(Cl)c1)C(=O)N1CC2(CCN(C/C=C/c3ccc(Cl)cc3)CC2)c2cc(Cl)ccc21 [Example 188, (E)-5-chloro-1′-(3-(4-chlorophenyl)allyl)-N-((2-chloropyridin-4-yl)methyl)-N-methylspiro[indoline-3,4′-piperidine]-1-carboxamide]	–	6.77	2 µM	–	–	–
